Measurements from ChEMBL document CHEMBL6127104, “Prorocentin-5: A Cytotoxic Polyketide from the Benthic Marine Dinoflagellate Prorocentrum lima” (J Nat Prod, 2024).
Activity calls are given as the source filed them. The rule behind the calls is not given here.

What was measured:
HCT-116 [1] = experiment: Induction of cell cycle arrest in human HCT-116 cells assessed as accumulation of cells at S phase at 1 uM incubated for 24 hrs by flow cytometric analysis (reference value: 19.2 %); format: functional
HCT-116 [2] = experiment: Induction of apoptosis in human HCT-116 cells assessed as necrotic cells at 1 uM incubated for 24 hrs by Annexin V-FITC/PI staining based flow cytometric analysis (reference value: 1.45 %); format: functional
N2a [3] = experiment: Induction of apoptosis in mouse Neuro2a cells assessed as fold increase in late apoptotic cells at 1 uM incubated for 24 hrs by Annexin V-FITC/PI staining based analysis; format: functional
HepG2 [4] = experiment: Induction of apoptosis in human HepG2 cells assessed as early apoptotic cells at 0.1 uM incubated for 24 hrs by Annexin V-FITC/PI staining based flow cytometric analysis (reference value: 4.85 %); format: functional
HepG2 [5] = experiment: Cytotoxicity against human HepG2 cells assessed as inhibition of cell proliferation AT 0.1 to 10 uM incubated for 24 hrs by MTT assay; format: functional, cell-based; settings: dose 0.1-10 µM
N2a [6] = experiment: Cytotoxicity against mouse Neuro2a cells assessed as inhibition of cell proliferation incubated for 24 hrs by MTT assay; format: functional, cell-based
N2a [7] = experiment: Induction of cell cycle arrest in mouse Neuro2a cells assessed as accumulation of cells at G0/G1 phase at 0.1 uM incubated for 24 hrs by flow cytometric analysis (reference value: 61.5 %); format: functional
HCT-116 [8] = experiment: Induction of cell cycle arrest in human HCT-116 cells assessed as accumulation of cells at G0/G1 phase at 1 uM incubated for 24 hrs by flow cytometric analysis (reference value: 90.2 %); format: functional
HCT-116 [9] = experiment: Induction of apoptosis in human HCT-116 cells assessed as necrotic cells at 0.1 uM incubated for 24 hrs by Annexin V-FITC/PI staining based flow cytometric analysis (reference value: 1.45 %); format: functional
N2a [10] = experiment: Induction of cell cycle arrest in mouse Neuro2a cells assessed as accumulation of cells at S phase at 0.1 uM incubated for 24 hrs by flow cytometric analysis (reference value: 30.5 %); format: functional
HepG2 [11] = experiment: Induction of apoptosis in human HepG2 cells assessed as fold increase in early apoptotic cells at 1 uM incubated for 24 hrs by Annexin V-FITC/PI staining based flow cytometric analysis; format: functional
N2a [12] = experiment: Induction of apoptosis in mouse Neuro2a cells assessed as viable cells at 1 uM incubated for 24 hrs by Annexin V-FITC/PI staining based analysis (reference value: 91.70 %); format: functional; settings: read-out: Activity
HepG2 [13] = experiment: Induction of cell cycle arrest in human HepG2 cells assessed as accumulation of cells at G0/G1 phase at 1 uM incubated for 24 hrs by flow cytometric analysis (reference value: 66.4 %); format: functional
HCT-116 [14] = experiment: Induction of apoptosis in human HCT-116 cells assessed as late apoptotic cells at 0.1 uM incubated for 24 hrs by Annexin V-FITC/PI staining based flow cytometric analysis (reference value: 6.15 %); format: functional
HepG2 [15] = experiment: Induction of cell cycle arrest in human HepG2 cells assessed as accumulation of cells at S phase at 0.1 uM incubated for 24 hrs by flow cytometric analysis (reference value: 27.8 %); format: functional
HCT-116 [16] = experiment: Cytotoxicity against human HCT-116 cells assessed as inhibition of cell proliferation incubated for 24 hrs by MTT assay; format: functional, cell-based; settings: HCT-116, 24 h
HCT-116 [17] = experiment: Induction of apoptosis in human HCT-116 cells assessed as early apoptotic cells at 1 uM incubated for 24 hrs by Annexin V-FITC/PI staining based flow cytometric analysis (reference value: 1.90 %); format: functional
HepG2 [18] = experiment: Induction of apoptosis in human HepG2 cells assessed as necrotic cells at 1 uM incubated for 24 hrs by Annexin V-FITC/PI staining based flow cytometric analysis (reference value: 3.02 %); format: functional
N2a [19] = experiment: Cytotoxicity against mouse Neuro2a cells assessed as inhibition of cell proliferation at 0.1 to 10 uM incubated for 24 hrs by MTT assay; format: functional, cell-based; settings: dose 0.1-10 µM
HCT-116 [20] = experiment: Induction of cell cycle arrest in human HCT-116 cells assessed as accumulation of cells at G2/M phase at 0.1 uM incubated for 24 hrs by flow cytometric analysis (reference value: 30.6 %); format: functional
N2a [21] = experiment: Induction of apoptosis in mouse Neuro2a cells assessed as necrotic cells at 0.1 uM incubated for 24 hrs by Annexin V-FITC/PI staining based analysis (reference value: 4.33 %); format: functional
HepG2 [22] = experiment: Induction of apoptosis in human HepG2 cells assessed as viable cells at 1 uM incubated for 24 hrs by Annexin V-FITC/PI staining based flow cytometric analysis (reference value: 90.08 %); format: functional; settings: read-out: Activity
N2a [23] = experiment: Induction of apoptosis in mouse Neuro2a cells assessed as early apoptotic cells at 1 uM incubated for 24 hrs by Annexin V-FITC/PI staining based analysis (reference value: 3.17 %); format: functional
HepG2 [24] = experiment: Induction of apoptosis in human HepG2 cells assessed as late apoptotic cells at 0.1 uM incubated for 24 hrs by Annexin V-FITC/PI staining based flow cytometric analysis (reference value: 2.05 %); format: functional
N2a [25] = experiment: Induction of cell cycle arrest in mouse Neuro2a cells assessed as accumulation of cells at S phase at 1 uM incubated for 24 hrs by flow cytometric analysis (reference value: 30.5 %); format: functional
N2a [26] = experiment: Induction of apoptosis in mouse Neuro2a cells assessed as necrotic cells at 1 uM incubated for 24 hrs by Annexin V-FITC/PI staining based analysis (reference value: 4.33 %); format: functional
N2a [27] = experiment: Induction of apoptosis in mouse Neuro2a cells assessed as viable cells at 0.1 uM incubated for 24 hrs by Annexin V-FITC/PI staining based analysis (reference value: 91.70 %); format: functional; settings: read-out: Activity
HepG2 [28] = experiment: Induction of cell cycle arrest in human HepG2 cells assessed as accumulation of cells at S phase at 1 uM incubated for 24 hrs by flow cytometric analysis (reference value: 27.8 %); format: functional
N2a [29] = experiment: Induction of apoptosis in mouse Neuro2a cells assessed as late apoptotic cells at 1 uM incubated for 24 hrs by Annexin V-FITC/PI staining based analysis (reference value: 0.81 %); format: functional
N2a [30] = experiment: Induction of apoptosis in mouse Neuro2a cells assessed as early apoptotic cells at 0.1 uM incubated for 24 hrs by Annexin V-FITC/PI staining based analysis (reference value: 3.17 %); format: functional
HCT-116 [31] = experiment: Induction of cell cycle arrest in human HCT-116 cells assessed as accumulation of cells at G2/M phase at 1 uM incubated for 24 hrs by flow cytometric analysis (reference value: 30.6 %); format: functional
HepG2 [32] = experiment: Induction of cell cycle arrest in human HepG2 cells assessed as accumulation of cells at G0/G1 phase at 0.1 uM incubated for 24 hrs by flow cytometric analysis (reference value: 66.4 %); format: functional
N2a [33] = experiment: Induction of apoptosis in mouse Neuro2a cells assessed as fold increase in early apoptotic cells at 1 uM incubated for 24 hrs by Annexin V-FITC/PI staining based analysis; format: functional
HCT-116 [34] = experiment: Cytotoxicity against human HCT-116 cells assessed as inhibition of cell proliferation at 0.1 to 10 uM incubated for 24 hrs by MTT assay; format: functional, cell-based; settings: dose 0.1-10 µM
HepG2 [35] = experiment: Induction of cell cycle arrest in human HepG2 cells assessed as accumulation of cells at G2/M phase at 1 uM incubated for 24 hrs by flow cytometric analysis (reference value: 27.8 %); format: functional
HCT-116 [36] = experiment: Induction of apoptosis in human HCT-116 cells assessed as viable cells at 0.1 uM incubated for 24 hrs by Annexin V-FITC/PI staining based flow cytometric analysis (reference value: 90.50 %); format: functional; settings: read-out: Activity
N2a [37] = experiment: Induction of cell cycle arrest in mouse Neuro2a cells assessed as accumulation of cells at G2/M phase at 0.1 uM incubated for 24 hrs by flow cytometric analysis (reference value: 8.0 %); format: functional
HepG2 [38] = experiment: Induction of cell cycle arrest in human HepG2 cells assessed as accumulation of cells at G2/M phase at 0.1 uM incubated for 24 hrs by flow cytometric analysis (reference value: 6.7 %); format: functional
HCT-116 [39] = experiment: Induction of apoptosis in human HCT-116 cells assessed as viable cells at 1 uM incubated for 24 hrs by Annexin V-FITC/PI staining based flow cytometric analysis (reference value: 90.50 %); format: functional; settings: read-out: Activity
HepG2 [40] = experiment: Induction of apoptosis in human HepG2 cells assessed as viable cells at 0.1 uM incubated for 24 hrs by Annexin V-FITC/PI staining based flow cytometric analysis (reference value: 90.08 %); format: functional; settings: read-out: Activity
HepG2 [41] = experiment: Induction of apoptosis in human HepG2 cells assessed as necrotic cells at 0.1 uM incubated for 24 hrs by Annexin V-FITC/PI staining based flow cytometric analysis (reference value: 3.02 %); format: functional
HCT-116 [42] = experiment: Induction of apoptosis in human HCT-116 cells assessed as early apoptotic cells at 0.1 uM incubated for 24 hrs by Annexin V-FITC/PI staining based flow cytometric analysis (reference value: 1.90 %); format: functional
HCT-116 [43] = experiment: Induction of apoptosis in human HCT-116 cells assessed as late apoptotic cells at 1 uM incubated for 24 hrs by Annexin V-FITC/PI staining based flow cytometric analysis (reference value: 6.15 %); format: functional
N2a [44] = experiment: Induction of cell cycle arrest in mouse Neuro2a cells assessed as accumulation of cells at G0/G1 phase at 1 uM incubated for 24 hrs by flow cytometric analysis (reference value: 61.5 %); format: functional
HepG2 [45] = experiment: Induction of apoptosis in human HepG2 cells assessed as early apoptotic cells at 1 uM incubated for 24 hrs by Annexin V-FITC/PI staining based flow cytometric analysis (reference value: 4.85 %); format: functional
N2a [46] = experiment: Induction of cell cycle arrest in mouse Neuro2a cells assessed as accumulation of cells at G2/M phase at 1 uM incubated for 24 hrs by flow cytometric analysis (reference value: 8.0 %); format: functional
N2a [47] = experiment: Induction of apoptosis in mouse Neuro2a cells assessed as late apoptotic cells at 0.1 uM incubated for 24 hrs by Annexin V-FITC/PI staining based analysis (reference value: 0.81 %); format: functional
HepG2 [48] = experiment: Induction of apoptosis in human HepG2 cells assessed as late apoptotic cells at 1 uM incubated for 24 hrs by Annexin V-FITC/PI staining based flow cytometric analysis (reference value: 2.05 %); format: functional
HCT-116 [49] = experiment: Induction of cell cycle arrest in human HCT-116 cells assessed as accumulation of cells at G0/G1 phase at 0.1 uM incubated for 24 hrs by flow cytometric analysis (reference value: 90.2 %); format: functional
HepG2 [50] = experiment: Induction of apoptosis in human HepG2 cells assessed as fold increase in late apoptotic cells at 1 uM incubated for 24 hrs by Annexin V-FITC/PI staining based flow cytometric analysis; format: functional
HCT-116 [51] = experiment: Induction of cell cycle arrest in human HCT-116 cells assessed as accumulation of cells at S phase at 0.1 uM incubated for 24 hrs by flow cytometric analysis (reference value: 19.2 %); format: functional
HCT-116 [52] = experiment: Induction of apoptosis in human HCT-116 cells assessed as fold increase in late apoptotic cells at 1 uM incubated for 24 hrs by Annexin V-FITC/PI staining based analysis; format: functional
HCT-116 [53] = experiment: Induction of apoptosis in human HCT-116 cells assessed as fold increase in early apoptotic cells at 1 uM incubated for 24 hrs by Annexin V-FITC/PI staining based analysis; format: functional

CC(=O)CCCCC[C@@H](O)[C@H](C)C[C@H](C)CC[C@@H]1O[C@H]1C[C@@H]1CC[C@@H](/C=C/C=C/C[C@H](O)C[C@H]2C=C[C@@H](C=C(C)C)O2)O1
Activity (HCT-116 [1]): 26%
Activity (HCT-116 [2]): 18.45%
fold change (FC) (N2a [3]): 30.7
Activity (HepG2 [4]): 30.92%
Activity (HepG2 [5]): Active
IC50 (N2a [6]): 2.8 µM
Activity (N2a [7]): 51.5%
Activity (HCT-116 [8]): 6.8%
Activity (HCT-116 [9]): 5.4%
Activity (N2a [10]): 38.1%
fold change (FC) (HepG2 [11]): 5.8
viability at 1 µM (N2a [12]): 55.1%
Activity (HepG2 [13]): 52.3%
Activity (HCT-116 [14]): 14.55%
Activity (HepG2 [15]): 36%
IC50 (HCT-116 [16]): 4.4 µM
Activity (HCT-116 [17]): 5.15%
Activity (HepG2 [18]): 1.72%
Activity (N2a [19]): Active
Activity (HCT-116 [20]): 31.9%
Activity (N2a [21]): 1.16%
viability at 1 µM (HepG2 [22]): 49.8%
Activity (N2a [23]): 17.3%
Activity (HepG2 [24]): 15.02%
Activity (N2a [25]): 43.1%
Activity (N2a [26]): 2.85%
viability at 0.1 µM (N2a [27]): 76%
Activity (HepG2 [28]): 34.7%
Activity (N2a [29]): 24.75%
Activity (N2a [30]): 15.67%
Activity (HCT-116 [31]): 27.1%
Activity (HepG2 [32]): 54.5%
fold change (FC) (N2a [33]): 5.5
Activity (HCT-116 [34]): Active
Activity (HepG2 [35]): 13%
viability at 0.1 µM (HCT-116 [36]): 75.2%
Activity (N2a [37]): 10.4%
Activity (HepG2 [38]): 10.5%
viability at 1 µM (HCT-116 [39]): 58.5%
viability at 0.1 µM (HepG2 [40]): 52.2%
Activity (HepG2 [41]): 1.88%
Activity (HCT-116 [42]): 4.9%
Activity (HCT-116 [43]): 17.52%
Activity (N2a [44]): 43.2%
Activity (HepG2 [45]): 27.87%
Activity (N2a [46]): 13.7%
Activity (N2a [47]): 7.2%
Activity (HepG2 [48]): 20.59%
Activity (HCT-116 [49]): 48.4%
fold change (FC) (HepG2 [50]): 10
Activity (HCT-116 [51]): 18.7%
fold change (FC) (HCT-116 [52]): 2.9
fold change (FC) (HCT-116 [53]): 2.7
